# Measurements reported in patent US7199156B2, “Composition and method to treat solid tumors” (priority 2003, dated 2007).
# Entries after “also recorded” stand apart in the source; their conditions may differ. Marks after values point to notes of the source that are not given here.
# Columns and labels:
# [1] = free BAPN; quickly excreted and metabolized; cited from earlier work
# [2] = tested on: malignant mammary adenocarcinoma, code 13762 NM; assay: Single injection of lipophilic lathyrogen/polymeric carrier into mammary carcinoma (Example V); format: in vivo, rats; conditions: single intratumoral injection on day 10, in polymeric carrier with unmodified DPA or BAPN
# Protocol: In this Example V, Applicant prepared a formulation comprising methylester-DPA.HCl, i.e. Compound II wherein R1 is methyl and wherein R2 is hydrogen, and wherein X is chloride, or Hexyl(amino)-propionitrile, i.e. Compound IV, wherein R4 is hexyl, dispersed in a liquid polymeric carrier.
# Applicant dispersed 1 gram of either methylester-DPA.HCl, or hexyl(amino) propionitrile, in combination with about 100 mg of the unmodified DPA or BAPN, respectively, in about 1 ml of the liquid polymer. After thorough mixing, 1 ml volume syringes were filled with Applicant's formulation. All preparations were performed at about 4° C., over crushed ice, and the syringes and needles used were refrigerated prior to loading. The loaded syringes were kept in a refrigerated vessel until used.
# The rat model of solid tumor was described by Miller et al. (Proc Nat'l Acad Sci 90,3304,1993). Fischer 344 (F344) inbred female rats were used. The initial body weight was 100 grams, plus or minus about 7 grams. The right flank area was clipped, and the rats were tattooed for identification in the ear. […]
# There were 6 rats per group. […] Once the implanted tumor was detectable, the size of that tumor was measured by caliper in two perpendicular directions.
# The growth of each tumor was determined every second day. […]
# breast adenocarcinome = assay: Single injection into mammary carcinoma, breast adenocarcinome model (Example VI); format: in vivo, rats; conditions: single intratumoral injection; FIG. 3
# Protocol: In this Example VI, Applicant studied the effect of various treatments on the tumor growth, survival rate, morphology, and metastases in Fisher rats of breast adenocarcinome model.
# The method of Example V was used to prepare and inject tumor chunks into the test animals. In Example VI, Applicant used 5 groups of animals with 8 rats per group.
# The preparation of the treatment modalities was as follows: • Group 1. Control • Group 2. Polymer Carrier only; used 1.5 ml polymer+1 ml water (polymer used: 38% PLGA-c-PEG in saline) • Group 3. 2 grams Polymeric Carrier+1.038 grams Hexyl ester DPA.HCl+200 mg DPA • Group 4. 800 mg Hexyl ester DPA.HCl+200 mg DPA+2 ml water • Group 5. 1.5 grams Polymeric Carrier+1.5 grams Hexyl (amino)propionitrile+200 mg BAPN Once mixed, all materials were kept on ice until injection time. The various formulations were injected into the tumor using a 23 gauge needle. The retains of Groups 2, 3, and 5, remained pourable after 2–3 hours at 82° F.
# [3] = Rate of release of lathyrogen from polymeric carrier HYPA(N-30) into saline; format: physicochemical; conditions: for Percent Released: from HYPA(N-30) carrier into saline, 37° C.
# Protocol: Applicant compared the rate of release from a polymeric carrier of unmodified […] hydrophilic lathyrogen, and a lipophilic D-penicillamine adduct formed by reacting DPA with hexanaldehyde using a published synthetic procedure. Both lathyrogens were dispersed in a polyacrylonitrile (“PAN”) polymer sold in commerce by SKY Polymers, Princeton, N.J. under the tradename HYPA(N-30). The HYPA(N-30) was dissolved in 100% DMSO. Water drowning this DMSO/HYPA(N-30)/lipophilic DPA solution, using a syringe with a 16 gauge needle attached, into saline (0.9% NaCl in water W/v) forms a flexible, solid string. The […] was kept at 37° C., and the incubation jar was minimally shaken. At the times recited in Table 1, an aliquot of the incubation medium was collected and the amount of released D-penicillamine was determined using a reaction between ninhydrin and the free amino groups on the released DPA. […] The ninhydrin reaction requires heating the sample at 100° C., thus freeing the amino group. Table 1 recites the results.
# B-16 melanoma cells = assay: Repeated injections of DPA into melanoma tumor (Example IV); format: in vivo, mice; conditions: for Volume of melanoma tumor: 5 mg DPA in 0.2 ml saline daily, intratumoral, average
# Protocol: Female mice, standard inbred C 57/Black, having between about 20 to about 25 g body weight were injected s.c. in the right flank region with 0.1 ml of […] B-16 melanoma cells. These cells are harvested in their end of the log phase growth. These cells come from a tissue culture, using RPMI 1640 medium with 10% FBS enriched with 1-glutamine, penicillin and streptomycin. Cells are harvested by trypsinization, counted, suspended in sterile PBS, and injected in 0.1 ml s.c. in flank region. There were 4 mice per group.
# Injection of these melanoma cells resulted within 10 days post injection to a tumor weight of about 1.5 g. Tumor volumes were monitored 3× per week by caliper (MITUYO digital, Smalls Parts Inc., Phoenix, Ariz.) in two perpendicular directions and once per week for body weight. Tumor volume in cubic millimeters is calculated by the formula: (length×(width^2))/2.
# Monitoring was continued up to 4 weeks. When the control animals began to die from the tumor burden, the experiment was terminated. Individual animals were terminated once the tumor volume exceeded 20% of mice weight, or when the body weight loss exceeded 20% of the starting body weight.
# Table 2 recites the volume, in cubic millimeters, of the melanoma tumor injected daily with 5 mg DPA in 0.2 ml of saline. The treatment was administered once the tumor reached a detectable and measurable size. Average volumes are recited in Table 2. […] There was no effect on body weight or animals behavior.
# [4] = known properties; cited from earlier work
# [5] = cited from earlier work
compound,measurement,setting,value
"N#CCCN [BAPN, beta-aminopropionitrile]",duration of activity,[1],no more than 24 hours
"COC(=O)[C@H](N)C(C)(C)S.Cl [methylester-DPA.HCl, DPA-Methylester Hydrochloride]",growth of the tumor,[2]; Hydrochloride,even more pronounced inhibition of tumor growth; also recorded: inhibitory effect
same,tumor growth,breast adenocarcinome,effective
D-Pencillamine [DPA],time over which released from the polymeric carrier,[3]; FIG. 1,a few hours
same,Percent Released,[3]; Time 0.1 hours,29%
same,Percent Released,[3]; Time 2 hours,89%
same,Percent Released,[3]; Time 20 hours,100%
same,effect on body weight or animals behavior,B-16 melanoma cells; daily intratumoral 5 mg DPA,no effect
same,Volume of melanoma tumor,B-16 melanoma cells; day 0 after detectable tumor was injected,89 cubic millimeters
same,Volume of melanoma tumor,B-16 melanoma cells; day 2,174* cubic millimeters
same,Volume of melanoma tumor,B-16 melanoma cells; day 5,806* cubic millimeters
same,Volume of melanoma tumor,B-16 melanoma cells; day 7,816* cubic millimeters
same,Volume of melanoma tumor,B-16 melanoma cells; day 9,486* cubic millimeters
same,Toxicity In local administration,[4],none
same,Toxicity in systemic administration,[4],yes
same,"solubility in aqueous media, such as tissue fluid",[5],very soluble
"CCCCCCNCCC#N [Hexylamino-propionitrile, Hexyl(amino)-propionitrile]",growth of the tumor,[2],markedly inhibited; also recorded: inhibitory effect
